Data on one compound can be found in patent US7405214B2, “Nucleoside derivatives and therapeutic use thereof” (Rexahn Corporation, priority 2004, dated 2008).

The subject of data set [1] is SK-MEL-28 (melanoma). Kind of data set: SRB cell growth inhibition assay, SK-MEL-28. Type of data set: cell-based. The settings on record: Homo sapiens, SK-MEL-28, 96 hours. An excerpt:
(§1) Cancer cell lines to determine the effect of nucleoside compounds were obtained from the following sources: Human OVCAR-3 (ovary), MCF-7 (breast, hormone-dependent), MDA-MB-231 (breast), HeLa (cervix), PC3 (prostate), LNCap (prostate), HepG2 (liver), A549 (lung), NCI-H226 (lung), HT-29 (colon), HCT116 (colon), SK-MEL-28 (melanoma) and PANC-1 (pancreas) from the American Type Culture Collection (ATCC) (Manassas, Va.); U251 (brain) from Riken (Japan); MKN-45 (stomach) from DSMZ (Germany); UMRC2 (kidney) from the United States National Cancer Institute (Bethesda, Md.). […]
(§2) The growth inhibition assay of RX-3117 against 16 human tumor cell lines was performed using the Sulforhodamine B (“SRB”) method (Skehan et al., J. National Cancer Institute, 82: 1107-1112 (1990)). […] After 5 minutes agitation in 10 mM Tris solution, the absorbance of each well was measured at 530 nm using Benchmark Plus Microplate reader (Bio-Rad Laboratories, Hercules, Calif.).
(§3) To translate the OD530 values into the number of live cells in each well, the OD530 values were compared to those on standard OD530—versus—cell number curves generated for each cell line. The percent survival was calculated using the formula: % Survival=live cell number[test]/live cell number[control]×100
(§4) The IC50 values were calculated by non-linear regression analysis.

Data set [2] has as its system PANC-1 (pancreas). Briefly: SRB cell growth inhibition assay, PANC-1. Type of data set: cell-based. The note with it: Homo sapiens, PANC-1, 96 hours.
Excerpt: as §1, §2, §3, §4

The test system of data set [3] is HCT116 human colon carcinoma xenografts. Briefly: Xenograft study in nude mice. Type of data set: in vivo. The settings on record: intraperitoneal, three times per week day 5 to day 37; for tumor volume compared to the controls: after day 37. As for the experimental part:
In order to observe the inhibition of growth of tumor in an animal model, an […] xenograft study of nude mice was conducted utilizing RX-3117. Suitable human cancer cell lines are those that have been tested already for inhibition of cancer cell growth, and particularly preferred was colon carcinoma HCT116. The antitumor efficacy of RX-3117 was evaluated against subcutaneously injected tumor xenografts in nude mice and tumor volume was measured after the treatment of RX-3117.
HCT116 cell suspension (2×10^6 cells in 0.1 ml of RPMI) was injected subcutaneously into the right flank of six-week-old male athymic mice (BALB/c nu/nu) on day 0. A sufficient number of mice were injected with HCT116 cell suspension so that tumors in a volume range as narrow as possible were selected for the trial on the day of treatment initiation. Animals with tumors in the proper size range were assigned to various treatment groups. RX-3117 was dissolved in 10% DMSO in PBS and solvent alone served as control. All study medications (control, RX-3117: 2 mg/kg/day, RX-3117: 10 mg/kg/day) were given by intraperitoneal injections three times per week starting from day 5 and ending on day 37. To quantify tumor growth, three perpendicular diameters of the tumors were measured with calipers every 3-5 days, and the body weight of the mice was monitored for toxicity. The tumor volume was calculated using the formula: tumor volume (mm^3)=(width)×(length)×(height)×π/6.

Data set [4] concerns U251 (brain). Kind of data set: SRB cell growth inhibition assay, U251. Type of data set: cell-based. The note with it: Homo sapiens, U-251, U251, 96 hours.
Excerpt: as §1, §2, §3, §4

The subject of data set [5] is LnCap (prostate). Kind of data set: SRB cell growth inhibition assay, LnCap. Type of data set: cell-based. The settings on record: Homo sapiens, 96 hours.
Excerpt: as §1, §2, §3, §4

Data set [6] relates to HepG2 (liver). Kind of data set: SRB cell growth inhibition assay, HepG2. Type of data set: cell-based. The settings on record: Homo sapiens, HepG2, 96 hours.
Excerpt: as §1, §2, §3, §4

Data set [7] deals with MKN-45 (stomach). Kind of data set: SRB cell growth inhibition assay, MKN-45. Type of data set: cell-based. The note with it: Homo sapiens, MKN-45, 96 hours.
Excerpt: as §1, §2, §3, §4

The test system of data set [8] is MCF-7 (breast, hormone-dependent). Kind of data set: SRB cell growth inhibition assay, MCF-7. The settings on record: Homo sapiens, MCF7, MCF-7, 96 hours. Type of data set: cell-based.
Excerpt: as §1, §2, §3, §4

The subject of data set [9] is PC3 (prostate). Kind of data set: SRB cell growth inhibition assay, PC3. Type of data set: cell-based. The settings on record: Homo sapiens, PC3, 96 hours.
Excerpt: as §1, §2, §3, §4

In data set [10] the test system is OVCAR-3 (ovary). Briefly: SRB cell growth inhibition assay, OVCAR-3. Type of data set: cell-based. The note with it: Homo sapiens, OVCAR-3, 96 hours.
Excerpt: as §1, §2, §3, §4

The subject of data set [11] is UMRC2 (kidney). Briefly: SRB cell growth inhibition assay, UMRC2. Type of data set: cell-based. The note with it: Homo sapiens, UMRC2, 96 hours.
Excerpt: as §1, §2, §3, §4

For data set [12], the system named is HT-29 (colon). Briefly: SRB cell growth inhibition assay, HT-29. Type of data set: cell-based. The note with it: Homo sapiens, HT-29, 96 hours.
Excerpt: as §1, §2, §3, §4

Data set [13] relates to HeLa (cervix). Kind of data set: SRB cell growth inhibition assay, HeLa. Type of data set: cell-based. The note with it: Homo sapiens, 96 hours.
Excerpt: as §1, §2, §3, §4

The test system of data set [14] is MDA-MB-231 (breast). Kind of data set: SRB cell growth inhibition assay, MDA-MB-231. Type of data set: cell-based. The note with it: Homo sapiens, MDA-MB-231, 96 hours.
Excerpt: as §1, §2, §3, §4

The test system of data set [15] is NCI-H226 (lung). Kind of data set: SRB cell growth inhibition assay, NCI-H226. Type of data set: cell-based. The note with it: Homo sapiens, NCI-H226, 96 hours.
Excerpt: as §1, §2, §3, §4

Data set [16] deals with HCT116 (colon). Briefly: SRB cell growth inhibition assay, HCT116. The note with it: Homo sapiens, HCT-116, HCT116, 96 hours. Type of data set: cell-based.
Excerpt: as §1, §2, §3, §4

Data set [17] relates to A549 (lung). Briefly: SRB cell growth inhibition assay, A549. Type of data set: cell-based. The settings on record: Homo sapiens, A549, 96 hours.
Excerpt: as §1, §2, §3, §4

For the compound `Nc1ccn([C@@H]2C(F)=C(CO)[C@@H](O)[C@H]2O)c(=O)n1` [RX-3117, (1S,4R,5S)-4-Amino-1-(2-fluoro-4,5-dihydroxy-3-hydroxymethyl-cyclopent-2-enyl)-1H-pyrimidin-2-one], the concentration for half-maximal inhibition (IC50) – broadly, the concentration needed to halve the response being measured – in data set [1] amounted to 1.38 µM; in data set [2], 0.62 µM; in data set [4], 0.83 µM; in data set [5], 2.67 µM; in data set [6], 0.79 µM; in data set [7], 0.34 µM. Moreover, the concentration for half-maximal inhibition (IC50) stood at 0.34 µM in data set [8]; 0.63 µM in data set [9]; 0.8 µM in data set [10]; 0.83 µM in data set [11]; 0.28 µM in [12]; 1.35 µM in [13]. Besides, the half-maximal inhibitory concentration (IC50) in data set [14] is 0.18 µM; in data set [15], 0.25 µM; in [16], 0.19 µM; in data set [17], 0.5 µM. Besides, the “tumor volume compared to the controls” value in data set [3] (2 mg/kg/day) and in [3] (10 mg/kg/day) was “significantly reduced” throughout. Besides, the body weight fluctuations result in data set [3] (2 and 10 mg/kg/day) is given as “no more than 1 g”.
